According to ChEMBL document CHEMBL5344413, “Discovery of 4-(1,2,4-Oxadiazol-5-yl)azepan-2-one Derivatives as a New Class of Cannabinoid Type 2 Receptor Agonists for the Treatment of Inflammatory Pain” (J Med Chem, 2023):
Calls of active or inactive are those of the source.

Experiments:
[1] = Protein binding in human plasma by dialysis method; assay type: ADME, cell-free; settings: read-out: PPB (converted)
[2] = MRT(0 to t) in BALB/c mouse at 1 mg/kg, iv; assay type: ADME, organism-based; settings: in vivo
[3] = Intrinsic clearance in mouse liver at 10 uM measured per kg body weight; assay type: ADME, tissue-based
[4] = Half life in rat liver microsomes at 10 uM; assay type: ADME, Microsome
[5] = Half life in human liver microsomes at 10 uM; assay type: ADME, Microsome
[6] = Toxicity against C57BL/6 mouse assessed as induction of catalepsy at 20 mg/kg, ip measured within 4 hrs; assay type: organism-based; settings: in vivo
Cannabinoid receptor 2 [7] = target: T1, Cannabinoid receptor 2 (Homo sapiens, UniProt P34972); experiment: Agonist activity at human CB2 receptor expressed in CHO cells assessed as inhibition of forskolin-stimulated intracellular cAMP accumulation measured after 30 mins by Glosensor assay relative to control; assay type: functional, cell-based; settings: filed as agonist
Cannabinoid receptor 2 [8] = target: T1, Cannabinoid receptor 2; experiment: Agonist activity at N-terminal HA/Flag-tagged CB2 receptor (unknown origin) expressed in CHO cells assessed as increase in ERK1/2 phosphorylation measured after 15 mins by western blot analysis; assay type: functional, cell-based; settings: filed as agonist, dose 12-300 nM
[9] = Tmax in BALB/c mouse at 1 mg/kg, iv; assay type: ADME, organism-based; settings: in vivo
CHO [10] = experiment: Agonist activity at CB2 receptor W1945.43A mutant (unknown origin) expressed in CHO cells assessed as inhibition of forskolin-stimulated intracellular cAMP accumulation measured after 30 mins by Glosensor assay; assay type: cell-based; settings: Homo sapiens
[11] = Cmax in BALB/c mouse at 5 mg/kg, ip; assay type: ADME, organism-based; design: dose 5 mg/kg, route ip; settings: in vivo
[12] = Toxicity against C57BL/6 mouse assessed as change in body temperature at 20 mg/kg, ip measured within 4 hrs by thermometer analysis; assay type: organism-based; settings: in vivo
Cannabinoid receptor 1 = Cannabinoid receptor 1 (Homo sapiens, UniProt P21554); experiment: Agonist activity at human CB1 receptor expressed in CHO cells assessed as inhibition of forskolin-stimulated intracellular cAMP accumulation measured after 30 mins by Glosensor assay; assay type: cell-based
[13] = AUC(0 to t) in BALB/c mouse at 5 mg/kg, po; assay type: ADME, organism-based; design: dose 5 mg/kg, route po; settings: in vivo
[14] = Cmax in BALB/c mouse at 1 mg/kg, iv; assay type: ADME, organism-based; design: dose 1 mg/kg, route iv; settings: in vivo
[15] = Tmax in BALB/c mouse at 5 mg/kg, ip; assay type: ADME, organism-based; settings: in vivo
Cannabinoid receptor 2 [16] = target: T1, Cannabinoid receptor 2; experiment: Agonist activity at N-terminal HA/Flag-tagged CB2 receptor (unknown origin) expressed in CHO cells assessed as increase in ERK1/2 phosphorylation at 300 nM measured after 15 mins in presence of CB2 receptor antagonist, AM630 by western blot analysis; assay type: functional, cell-based
Mus musculus [17] = experiment: Antinociceptive activity against carrageenan-induced inflammatory C57BL/6 mouse model assessed as reduction in paw thickness at 20 mg/kg, ip administered with CB2 receptor antagonist, AM630 at 10 mins prior to drug challenge and measured at 5 hrs and 2 hrs following carrageenan and compound challenge respectively by digital caliper analysis; assay type: functional, organism-based
[18] = test system: Cannabinoid receptor 2 (Homo sapiens), P34972 [UNDEFINED MUTATION]; experiment: Agonist activity at CB2 receptor F183ECL2A mutant (unknown origin) expressed in CHO cells assessed as inhibition of forskolin-stimulated intracellular cAMP accumulation measured after 30 mins by Glosensor assay; assay type: cell-based
CHO [19] = experiment: Induction of ERK1/2 phosphorylation in Chinese hamster CHO cells at 1000 nM measured after 15 mins by western blot analysis; assay type: cell-based; settings: Cricetulus griseus
Homo sapiens = organism: Homo sapiens; experiment: Selectivity ratio of EC50 for agonist activity at human CB1 receptor expressed in CHO cells to EC50 for agonist activity at human CB2 receptor expressed in CHO cells; assay type: cell-based
Cannabinoid receptor 2 [20] = target: T1, Cannabinoid receptor 2; experiment: Agonist activity at LgBiT-fused CB2 receptor (unknown origin) coexpressed with miniGalphai-SmBiT in HEK293T cells assessed as G-protein recruitment by measuring complementation measured after 10 mins by NanoBiT luciferase assay; assay type: functional, cell-based
Cannabinoid receptor 2 [21] = target: T1, Cannabinoid receptor 2; experiment: Agonist activity at LgBiT-fused CB2 receptor (unknown origin) coexpressed with miniGalphai-SmBiT in HEK293T cells assessed as G-protein recruitment measured after 10 mins in presence of CB2 receptor antagonist, AM630 by NanoBiT luciferase assay; assay type: functional, cell-based
Cannabinoid receptor 2 [22] = target: T1, Cannabinoid receptor 2; experiment: Agonist activity at N-terminal HA/Flag-tagged CB2 receptor (unknown origin) expressed in CHO cells assessed as increase in Akt phosphorylation measured after 15 mins by western blot analysis; assay type: functional, cell-based; settings: filed as agonist, dose 12-300 nM
[23] = Intrinsic clearance in rat liver microsomes at 10 uM measured per mg protein; assay type: ADME, Microsome; settings: read-out: CLH
[24] = Half life in BALB/c mouse at 5 mg/kg, ip; assay type: ADME, organism-based; settings: in vivo
Mus musculus [25] = experiment: Antinociceptive activity against carrageenan-induced inflammatory C57BL/6 mouse model assessed as reduction in hyperalgesia by measuring increase in paw withdrawal threshold at 20 mg/kg, ip administered with CB2 receptor antagonist, AM630 at 10 mins prior to drug challenge and measured at 5 hrs and 2 hrs following carrageenan and compound challenge respectively by plantar esthesiometer analysis; assay type: functional, organism-based
[26] = Intrinsic clearance in rat liver at 10 uM measured per kg body weight; assay type: ADME, tissue-based
[27] = Half life in BALB/c mouse at 1 mg/kg, iv; assay type: ADME, organism-based; settings: in vivo
[28] = Cmax in BALB/c mouse at 5 mg/kg, po; assay type: ADME, organism-based; design: dose 5 mg/kg, route po; settings: in vivo
[29] = AUC(0 to infinity) in BALB/c mouse at 20 mg/kg, po; assay type: ADME, organism-based; design: dose 20 mg/kg, route po; settings: in vivo
[30] = Intrinsic clearance in human liver microsomes at 10 uM measured per mg protein; assay type: ADME, Microsome; settings: read-out: CLH
Mus musculus [31] = experiment: Antinociceptive activity against carrageenan-induced inflammatory C57BL/6 mouse model assessed as reduction in paw thickness at 20 mg/kg, ip measured at 5 hrs and 2 hrs following carrageenan and compound challenge respectively by digital caliper analysis; assay type: functional, organism-based
[32] = Tmax in BALB/c mouse at 5 mg/kg, po; assay type: ADME, organism-based; settings: in vivo
[33] = Half life in BALB/c mouse at 5 mg/kg, po; assay type: ADME, organism-based; settings: in vivo
Mus musculus [34] = experiment: (§1) Antinociceptive activity against ip dosed carrageenan-induced inflammatory C57BL/6 mouse model assessed as reduction in hyperalgesia by measuring increase in paw withdrawal threshold measured at 5 hrs and 2 hrs following carrageenan and compound challenge respectively by plantar esthesiometer analysis; assay type: functional, organism-based; settings: dose 5-20 mg/kg
Mus musculus [35] = experiment: as §1, with “against” for “against ip dosed”, “threshold at 20 mg/kg, po” for “threshold”; assay type: functional, organism-based
Cannabinoid receptor 2 [36] = target: T1, Cannabinoid receptor 2; experiment: Agonist activity at N-terminal HA/Flag-tagged CB2 receptor (unknown origin) expressed in CHO cells assessed as increase in Akt phosphorylation at 300 nM measured after 15 mins in presence of CB2 receptor antagonist, AM630 by western blot analysis; assay type: functional, cell-based
[37] = Clearance in BALB/c mouse at 5 mg/kg, po; assay type: ADME, organism-based; settings: in vivo
[38] = Metabolic stability of the compound in mouse liver microsomes assessed as parent compound remaining at 10 uM measured after 60 mins; assay type: ADME, Microsome; settings: read-out: Stability
[39] = Intrinsic clearance in mouse liver microsomes at 10 uM measured per mg protein; assay type: ADME, Microsome; settings: read-out: CLH
[40] = Bioavailability in BALB/c mouse at 5 mg/kg, ip; assay type: ADME, organism-based; settings: in vivo
[41] = AUC(0 to t) in BALB/c mouse at 1 mg/kg, iv; assay type: ADME, organism-based; design: dose 1 mg/kg, route iv; settings: in vivo
[42] = Oral bioavailability in BALB/c mouse at 5 mg/kg; assay type: ADME, organism-based; settings: in vivo
CHO [43] = experiment: Agonist activity at CB2 receptor F872.57A mutant (unknown origin) expressed in CHO cells assessed as inhibition of forskolin-stimulated intracellular cAMP accumulation measured after 30 mins by Glosensor assay; assay type: cell-based; settings: Homo sapiens
[44] = MRT(0 to t) in BALB/c mouse at 5 mg/kg, ip; assay type: ADME, organism-based; settings: in vivo
[45] = AUC(0 to t) in BALB/c mouse at 5 mg/kg, ip; assay type: ADME, organism-based; design: dose 5 mg/kg, route ip; settings: in vivo
[46] = MRT(0 to t) in BALB/c mouse at 5 mg/kg, po; assay type: ADME, organism-based; settings: in vivo
[47] = Clearance in BALB/c mouse at 1 mg/kg, iv; assay type: ADME, organism-based; settings: in vivo
[48] = Half life in BALB/c mouse at 20 mg/kg, po; assay type: ADME, organism-based; settings: in vivo
[49] = Protein binding in rat plasma by dialysis method; assay type: ADME, cell-free; settings: read-out: PPB (converted)
[50] = Protein binding in mouse plasma by dialysis method; assay type: ADME, cell-free; settings: read-out: PPB (converted)
[51] = Metabolic stability of the compound in rat liver microsomes assessed as parent compound remaining at 10 uM measured after 60 mins; assay type: ADME, Microsome; settings: read-out: Stability
Cannabinoid receptor 2 [52] = target: T1, Cannabinoid receptor 2; experiment: Agonist activity at human CB2 receptor expressed in CHO cells assessed as inhibition of forskolin-stimulated intracellular cAMP accumulation measured after 30 mins by Glosensor assay; assay type: functional, cell-based
CHO [53] = experiment: Induction of Akt phosphorylation in Chinese hamster CHO cells at 1000 nM measured after 15 mins by western blot analysis; assay type: cell-based; settings: Cricetulus griseus
[54] = Clearance in BALB/c mouse at 5 mg/kg, ip; assay type: ADME, organism-based; settings: in vivo
[55] = Intrinsic clearance in human liver at 10 uM measured per kg body weight; assay type: ADME, tissue-based
[56] = Metabolic stability of the compound in human liver microsomes assessed as parent compound remaining at 10 uM measured after 60 mins; assay type: ADME, Microsome; settings: read-out: Stability
[57] = Half life in mouse liver microsomes at 10 uM; assay type: ADME, Microsome

T1 sequence (P34972 whole entry): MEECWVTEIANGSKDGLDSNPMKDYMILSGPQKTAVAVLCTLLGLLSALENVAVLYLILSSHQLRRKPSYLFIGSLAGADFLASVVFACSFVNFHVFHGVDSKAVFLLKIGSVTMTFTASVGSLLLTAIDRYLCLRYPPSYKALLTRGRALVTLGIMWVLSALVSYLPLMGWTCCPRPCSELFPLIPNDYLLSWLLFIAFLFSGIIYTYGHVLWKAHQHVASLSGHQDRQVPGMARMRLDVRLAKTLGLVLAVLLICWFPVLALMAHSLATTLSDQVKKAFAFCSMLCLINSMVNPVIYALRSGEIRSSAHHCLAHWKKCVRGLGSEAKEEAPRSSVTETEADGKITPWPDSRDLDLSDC
Cannabinoid receptor 2 (Homo sapiens), P34972 [UNDEFINED MUTATION], sequence (P34972 whole entry, looked up, stated change not applied): as the sequence (P34972 whole entry) above
Cannabinoid receptor 1, sequence (P21554 whole entry): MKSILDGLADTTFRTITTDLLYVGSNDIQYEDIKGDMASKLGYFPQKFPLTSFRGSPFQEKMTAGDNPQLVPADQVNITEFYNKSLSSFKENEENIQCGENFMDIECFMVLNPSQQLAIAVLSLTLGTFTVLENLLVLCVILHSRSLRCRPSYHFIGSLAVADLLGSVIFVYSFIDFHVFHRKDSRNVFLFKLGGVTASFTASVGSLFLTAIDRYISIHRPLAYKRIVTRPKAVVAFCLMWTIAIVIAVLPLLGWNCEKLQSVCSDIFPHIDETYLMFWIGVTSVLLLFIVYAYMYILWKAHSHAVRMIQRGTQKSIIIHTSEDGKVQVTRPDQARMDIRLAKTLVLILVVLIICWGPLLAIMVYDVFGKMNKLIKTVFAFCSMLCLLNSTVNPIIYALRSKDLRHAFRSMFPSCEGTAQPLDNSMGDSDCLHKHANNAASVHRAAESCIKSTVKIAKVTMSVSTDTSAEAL

fraction unbound [1]: 0.011
MRT last [2]: 49.8 min
CLH [3]: 415 mL/min/kg
half-life at 10 µM [4]: 10.7 min
half-life at 10 µM [5]: 60.3 min
Emax (Cannabinoid receptor 2 [7]): 87%
Activity (Cannabinoid receptor 2 [8]): Dose-Dependent Effect
Tmax [9]: 4.8 min
Cmax [11]: 1080 ng/mL
AUC(0-t) [13]: 1660 ng·h/mL
Cmax [14]: 615 ng/mL
Tmax [15]: 19.8 min
Activity (Cannabinoid receptor 2 [16]): inactive
Activity [18]: inactive
EC50 (Cannabinoid receptor 2 [20]): 84.7 nM
Activity (Cannabinoid receptor 2 [21]): inactive
Activity (Cannabinoid receptor 2 [22]): Dose-Dependent Effect
microsomal CLint at 10 µM [23]: 130 µL/min/mg
half-life [24]: 56.4 min
CLH [26]: 232 mL/min/kg
half-life [27]: 70.8 min
Cmax [28]: 621 ng/mL
AUC(0-inf) [29]: 18000 ng·h/mL
microsomal CLint at 10 µM [30]: 23 µL/min/mg
Tmax [32]: 25.2 min
half-life [33]: 42 min
Activity (Cannabinoid receptor 2 [36]): inactive
CL/F [37]: 50.8 mL/min/kg
remaining at 1 h, 10 µM [38]: 3.15%
microsomal CLint at 10 µM [39]: 106 µL/min/mg
bioavailability [40]: 88.5%
AUC(0-t) [41]: 413 ng·h/mL
bioavailability [42]: 80.5%
MRT last [44]: 103 min
AUC(0-t) [45]: 1830 ng·h/mL
MRT last [46]: 128 min
clearance [47]: 41.2 mL/min/kg
half-life [48]: 224 min
fraction unbound [49]: 0.074
fraction unbound [50]: 0.032
remaining at 1 h, 10 µM [51]: 1.83%
EC50 (Cannabinoid receptor 2 [52]): 21 nM
CL/F [54]: 45.8 mL/min/kg
CLH [55]: 28.8 mL/min/kg
remaining at 1 h, 10 µM [56]: 46.3%
half-life at 10 µM [57]: 13.1 min
Compound: O=C1CC(c2nc(-c3ccc(F)c4cn[nH]c34)no2)CCCN1c1ccc(F)cc1 (centres undefined)
Activity [6]: Non-Toxic
Activity (CHO [10]): inactive
Activity [12]: Non-Toxic
EC50 (Cannabinoid receptor 1): > 30000 nM
Activity (Mus musculus [17]): inactive
Activity (CHO [19]): inactive
Ratio EC50 (Homo sapiens): > 1430
Activity (Mus musculus [25]): inactive
Activity (Mus musculus [31]): Active
Activity (Mus musculus [34]): Dose-Dependent Effect
Activity (Mus musculus [35]): Active
Activity (CHO [43]): inactive
Activity (CHO [53]): inactive
